{"source": "PubChem BioAssay (NCI)", "test_in_all_cases": "NCI anticancer screen, dose series, 48 h", "key": {"[1]": {"tested_on": "MALME-3M melanoma"}, "[2]": {"tested_on": "CCRF-CEM leukemia"}, "[3]": {"tested_on": "UO-31 renal"}, "[4]": {"tested_on": "HCC-2998 colon"}, "[5]": {"tested_on": "SK-MEL-28 melanoma"}, "[6]": {"tested_on": "TK-10 renal"}, "[7]": {"tested_on": "NCI-H23 lung"}, "[8]": {"tested_on": "SNB-75 CNS"}, "[9]": {"tested_on": "M14 melanoma"}, "[10]": {"tested_on": "MDA-MB-435"}, "[11]": {"tested_on": "HT29 colon"}, "[12]": {"tested_on": "PC-3 prostate"}, "[13]": {"tested_on": "RPMI-8226 leukemia"}, "[14]": {"tested_on": "KM12 colon"}, "[15]": {"tested_on": "DU-145 prostate"}, "[16]": {"tested_on": "A498 renal"}, "[17]": {"tested_on": "SK-MEL-5 melanoma"}, "[18]": {"tested_on": "BT-549 breast"}, "[19]": {"tested_on": "COLO 205 colon"}, "[20]": {"tested_on": "SK-MEL-2 melanoma"}, "[21]": {"tested_on": "NCI-H460 lung"}, "[22]": {"tested_on": "CAKI-1 renal"}, "[23]": {"tested_on": "MCF7 breast"}, "[24]": {"tested_on": "OVCAR-3 ovarian"}, "[25]": {"tested_on": "HCT-15 colon"}, "[26]": {"tested_on": "K-562 leukemia"}, "[27]": {"tested_on": "HS 578T breast"}}, "note": "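Values below derive from 48-hour exposures of cells grown in 96-well plates, with endpoints linearly interpolated between the two concentrations bracketing the appropriate inhibition level. GI50 marks 50% less growth. TGI marks complete inhibition of growth.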"}
{"smiles": "Cc1ccc2cc3c(cc(C)c4ccccc43)c3c2c1CC3", "values": [{"measurement": "TGI", "setting": "[1]", "value": "> 100", "unit": "µM"}, {"measurement": "GI50", "setting": "[2]", "value": "> 100", "unit": "µM"}, {"measurement": "TGI", "setting": "[2]", "value": "> 100", "unit": "µM"}, {"measurement": "GI50", "setting": "[3]", "value": "> 100", "unit": "µM"}, {"measurement": "TGI", "setting": "[3]", "value": "> 100", "unit": "µM"}, {"measurement": "GI50", "setting": "[4]", "value": "> 100", "unit": "µM"}, {"measurement": "TGI", "setting": "[4]", "value": "> 100", "unit": "µM"}, {"measurement": "GI50", "setting": "[5]", "value": "> 100", "unit": "µM"}, {"measurement": "TGI", "setting": "[5]", "value": "> 100", "unit": "µM"}, {"measurement": "GI50", "setting": "[6]", "value": 65.6, "unit": "µM"}, {"measurement": "TGI", "setting": "[6]", "value": "> 100", "unit": "µM"}, {"measurement": "GI50", "setting": "[7]", "value": "> 100", "unit": "µM"}, {"measurement": "TGI", "setting": "[7]", "value": "> 100", "unit": "µM"}, {"measurement": "GI50", "setting": "[8]", "value": 26.7, "unit": "µM"}, {"measurement": "TGI", "setting": "[8]", "value": "> 100", "unit": "µM"}, {"measurement": "GI50", "setting": "[9]", "value": "> 100", "unit": "µM"}, {"measurement": "TGI", "setting": "[9]", "value": "> 100", "unit": "µM"}, {"measurement": "GI50", "setting": "[10]", "value": "> 100", "unit": "µM"}, {"measurement": "TGI", "setting": "[10]", "value": "> 100", "unit": "µM"}, {"measurement": "GI50", "setting": "[11]", "value": "> 100", "unit": "µM"}, {"measurement": "TGI", "setting": "[11]", "value": "> 100", "unit": "µM"}, {"measurement": "GI50", "setting": "[12]", "value": "> 100", "unit": "µM"}, {"measurement": "TGI", "setting": "[12]", "value": "> 100", "unit": "µM"}, {"measurement": "GI50", "setting": "[13]", "value": "> 100", "unit": "µM"}, {"measurement": "TGI", "setting": "[13]", "value": "> 100", "unit": "µM"}, {"measurement": "GI50", "setting": "[14]", "value": "> 100", "unit": "µM"}, {"measurement": "TGI", "setting": "[14]", "value": "> 100", "unit": "µM"}, {"measurement": "GI50", "setting": "[15]", "value": "> 100", "unit": "µM"}, {"measurement": "TGI", "setting": "[15]", "value": "> 100", "unit": "µM"}, {"measurement": "GI50", "setting": "[16]", "value": 76, "unit": "µM"}, {"measurement": "TGI", "setting": "[16]", "value": "> 100", "unit": "µM"}, {"measurement": "GI50", "setting": "[17]", "value": "> 100", "unit": "µM"}, {"measurement": "TGI", "setting": "[17]", "value": "> 100", "unit": "µM"}, {"measurement": "GI50", "setting": "[18]", "value": "> 100", "unit": "µM"}, {"measurement": "TGI", "setting": "[18]", "value": "> 100", "unit": "µM"}, {"measurement": "GI50", "setting": "[19]", "value": "> 100", "unit": "µM"}, {"measurement": "TGI", "setting": "[19]", "value": "> 100", "unit": "µM"}, {"measurement": "GI50", "setting": "[20]", "value": "> 100", "unit": "µM"}, {"measurement": "TGI", "setting": "[20]", "value": "> 100", "unit": "µM"}, {"measurement": "GI50", "setting": "[21]", "value": "> 100", "unit": "µM"}, {"measurement": "TGI", "setting": "[21]", "value": "> 100", "unit": "µM"}, {"measurement": "GI50", "setting": "[22]", "value": "> 100", "unit": "µM"}, {"measurement": "TGI", "setting": "[22]", "value": "> 100", "unit": "µM"}, {"measurement": "GI50", "setting": "[23]", "value": 35.2, "unit": "µM"}, {"measurement": "TGI", "setting": "[23]", "value": "> 100", "unit": "µM"}, {"measurement": "GI50", "setting": "[24]", "value": "> 100", "unit": "µM"}, {"measurement": "TGI", "setting": "[24]", "value": "> 100", "unit": "µM"}, {"measurement": "GI50", "setting": "[25]", "value": "> 100", "unit": "µM"}, {"measurement": "TGI", "setting": "[25]", "value": "> 100", "unit": "µM"}, {"measurement": "GI50", "setting": "[26]", "value": "> 100", "unit": "µM"}, {"measurement": "TGI", "setting": "[26]", "value": "> 100", "unit": "µM"}, {"measurement": "GI50", "setting": "[27]", "value": 89.1, "unit": "µM"}, {"measurement": "TGI", "setting": "[27]", "value": "> 100", "unit": "µM"}]}
